The structures appear in SMILES notation.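 48-hour exposure; five concentrations; linearly interpolated endpoints. The concentration for full growth arrest is given as TGI.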

The first test relates to OVCAR-8 ovarian. As to the kind of experiment: NCI anticancer screen, dose series, 48 h.
As for `CCOC(=O)c1ccc(N=Nc2ccc(N(CCC#N)CCC#N)cc2C)cc1`, the TGI was more than 100 µM.

Another test relates to SK-OV-3 ovarian. Kind of test: NCI anticancer screen, dose series, 48 h.
Consider `COC(=O)C(C(=O)C(=O)Nc1c(Cl)cc([N+](=O)[O-])cc1Cl)c1csc(-n2nc(C3=CCCCC3)cc2-c2ccccc2)n1` (configuration not stated), for which the TGI was more than 100 µM.

`CCCCCCCCOCC(COC(=O)CCCCCCC)OC(=O)CCCCCCC` (configuration not stated) showed a TGI of more than 100 µM.

In turn, `O=C1CC(c2ccc(Cl)cc2)=Nc2ccccc2N1` came in with a TGI of 97.3 µM.

On to `CCOC(=O)c1ccc(N=Nc2ccc(N(CCC#N)CCC#N)cc2C)cc1`, for which the TGI was more than 100 µM.

The next test deals with HOP-92 NSCLC. Kind of test: NCI anticancer screen, dose series, 48 h.
On to `COC(=O)C(C(=O)C(=O)Nc1c(Cl)cc([N+](=O)[O-])cc1Cl)c1csc(-n2nc(C3=CCCCC3)cc2-c2ccccc2)n1` (configuration not stated), for which the TGI came to 77.7 µM.

In turn, `CCCCCCCCOCC(COC(=O)CCCCCCC)OC(=O)CCCCCCC` (configuration not stated) had a TGI of more than 100 µM.

In turn, `O=C1CC(c2ccc(Cl)cc2)=Nc2ccccc2N1` displayed a TGI of 71.1 µM.

The subject of another test is TK-10 renal. As to the kind of experiment: NCI anticancer screen, dose series, 48 h.
`COC(=O)C(C(=O)C(=O)Nc1c(Cl)cc([N+](=O)[O-])cc1Cl)c1csc(-n2nc(C3=CCCCC3)cc2-c2ccccc2)n1` (configuration not stated): the TGI is more than 100 µM.

Regarding `CCCCCCCCOCC(COC(=O)CCCCCCC)OC(=O)CCCCCCC` (configuration not stated), the TGI is more than 100 µM.

The molecule `O=C1CC(c2ccc(Cl)cc2)=Nc2ccccc2N1` returned a TGI of more than 100 µM.

The molecule `CCOC(=O)c1ccc(N=Nc2ccc(N(CCC#N)CCC#N)cc2C)cc1` had a TGI of more than 100 µM.

In the next test the test system is COLO 205 colon. Kind of test: NCI anticancer screen, dose series, 48 h.
Molecule `COC(=O)C(C(=O)C(=O)Nc1c(Cl)cc([N+](=O)[O-])cc1Cl)c1csc(-n2nc(C3=CCCCC3)cc2-c2ccccc2)n1` (configuration not stated) returned a TGI of more than 100 µM.

`CCCCCCCCOCC(COC(=O)CCCCCCC)OC(=O)CCCCCCC` (configuration not stated): the TGI is more than 100 µM.

With `O=C1CC(c2ccc(Cl)cc2)=Nc2ccccc2N1`, the TGI was more than 100 µM.

`CCOC(=O)c1ccc(N=Nc2ccc(N(CCC#N)CCC#N)cc2C)cc1` came in with a TGI of more than 100 µM.

For the next test, the system named is UACC-62 melanoma. Kind of test: NCI anticancer screen, dose series, 48 h.
For the molecule `COC(=O)C(C(=O)C(=O)Nc1c(Cl)cc([N+](=O)[O-])cc1Cl)c1csc(-n2nc(C3=CCCCC3)cc2-c2ccccc2)n1` (configuration not stated), the TGI was more than 100 µM.

Take `CCCCCCCCOCC(COC(=O)CCCCCCC)OC(=O)CCCCCCC` (configuration not stated): the TGI was more than 100 µM.

On to `O=C1CC(c2ccc(Cl)cc2)=Nc2ccccc2N1`, for which the TGI was more than 100 µM.

Molecule `CCOC(=O)c1ccc(N=Nc2ccc(N(CCC#N)CCC#N)cc2C)cc1` yielded a TGI of more than 100 µM.

For a further test, the system named is RPMI-8226 leukemia. Kind of test: NCI anticancer screen, dose series, 48 h.
As to `COC(=O)C(C(=O)C(=O)Nc1c(Cl)cc([N+](=O)[O-])cc1Cl)c1csc(-n2nc(C3=CCCCC3)cc2-c2ccccc2)n1` (configuration not stated), the TGI was more than 100 µM.

In turn, `CCCCCCCCOCC(COC(=O)CCCCCCC)OC(=O)CCCCCCC` (configuration not stated) had a TGI of more than 100 µM.

As to `CCOC(=O)c1ccc(N=Nc2ccc(N(CCC#N)CCC#N)cc2C)cc1`, the TGI is more than 100 µM.

In another test the test system is SNB-75 CNS. Kind of test: NCI anticancer screen, dose series, 48 h.
As for `COC(=O)C(C(=O)C(=O)Nc1c(Cl)cc([N+](=O)[O-])cc1Cl)c1csc(-n2nc(C3=CCCCC3)cc2-c2ccccc2)n1` (configuration not stated), the TGI was more than 100 µM.

`O=C1CC(c2ccc(Cl)cc2)=Nc2ccccc2N1` displayed a TGI of 50.2 µM.

A further test relates to SK-MEL-5 melanoma. Kind of test: NCI anticancer screen, dose series, 48 h.
As for `CCCCCCCCOCC(COC(=O)CCCCCCC)OC(=O)CCCCCCC` (configuration not stated), the TGI was more than 100 µM.

In the case of `O=C1CC(c2ccc(Cl)cc2)=Nc2ccccc2N1`, the TGI is more than 100 µM.

In turn, `CCOC(=O)c1ccc(N=Nc2ccc(N(CCC#N)CCC#N)cc2C)cc1` registered a TGI of more than 100 µM.

In the next test the test system is A549 NSCLC. As to the kind of experiment: NCI anticancer screen, dose series, 48 h.
Consider `COC(=O)C(C(=O)C(=O)Nc1c(Cl)cc([N+](=O)[O-])cc1Cl)c1csc(-n2nc(C3=CCCCC3)cc2-c2ccccc2)n1` (configuration not stated), for which the TGI is more than 100 µM.

Molecule `CCCCCCCCOCC(COC(=O)CCCCCCC)OC(=O)CCCCCCC` (configuration not stated) gave a TGI of more than 100 µM.

`O=C1CC(c2ccc(Cl)cc2)=Nc2ccccc2N1` yielded a TGI of more than 100 µM.

`CCOC(=O)c1ccc(N=Nc2ccc(N(CCC#N)CCC#N)cc2C)cc1` returned a TGI of more than 100 µM.

Another test deals with A498 renal. As to the kind of experiment: NCI anticancer screen, dose series, 48 h.
Regarding `COC(=O)C(C(=O)C(=O)Nc1c(Cl)cc([N+](=O)[O-])cc1Cl)c1csc(-n2nc(C3=CCCCC3)cc2-c2ccccc2)n1` (configuration not stated), the TGI was more than 100 µM.

In the case of `CCCCCCCCOCC(COC(=O)CCCCCCC)OC(=O)CCCCCCC` (configuration not stated), the TGI is more than 100 µM.

In turn, `O=C1CC(c2ccc(Cl)cc2)=Nc2ccccc2N1` showed a TGI of more than 100 µM.

Regarding `CCOC(=O)c1ccc(N=Nc2ccc(N(CCC#N)CCC#N)cc2C)cc1`, the TGI was more than 100 µM.

The test system of another test is HOP-18 NSCLC. Kind of test: NCI anticancer screen, dose series, 48 h.
As to `COC(=O)C(C(=O)C(=O)Nc1c(Cl)cc([N+](=O)[O-])cc1Cl)c1csc(-n2nc(C3=CCCCC3)cc2-c2ccccc2)n1` (configuration not stated), the TGI was more than 100 µM.

For the molecule `CCCCCCCCOCC(COC(=O)CCCCCCC)OC(=O)CCCCCCC` (configuration not stated), the TGI is more than 100 µM.

With `O=C1CC(c2ccc(Cl)cc2)=Nc2ccccc2N1`, the TGI is more than 100 µM.

For `CCOC(=O)c1ccc(N=Nc2ccc(N(CCC#N)CCC#N)cc2C)cc1`, the TGI is more than 100 µM.

For a further test, the system named is SNB-19 CNS. Kind of test: NCI anticancer screen, dose series, 48 h.
The molecule `COC(=O)C(C(=O)C(=O)Nc1c(Cl)cc([N+](=O)[O-])cc1Cl)c1csc(-n2nc(C3=CCCCC3)cc2-c2ccccc2)n1` (configuration not stated) had a TGI of more than 100 µM.

The molecule `CCCCCCCCOCC(COC(=O)CCCCCCC)OC(=O)CCCCCCC` (configuration not stated) gave a TGI of more than 100 µM.

Molecule `O=C1CC(c2ccc(Cl)cc2)=Nc2ccccc2N1` yielded a TGI of more than 100 µM.

`CCOC(=O)c1ccc(N=Nc2ccc(N(CCC#N)CCC#N)cc2C)cc1` displayed a TGI of more than 100 µM.

In another test the test system is M19-MEL melanoma. As to the kind of experiment: NCI anticancer screen, dose series, 48 h.
`COC(=O)C(C(=O)C(=O)Nc1c(Cl)cc([N+](=O)[O-])cc1Cl)c1csc(-n2nc(C3=CCCCC3)cc2-c2ccccc2)n1` (configuration not stated) had a TGI of more than 100 µM.

The molecule `CCCCCCCCOCC(COC(=O)CCCCCCC)OC(=O)CCCCCCC` (configuration not stated) yielded a TGI of more than 100 µM.

`O=C1CC(c2ccc(Cl)cc2)=Nc2ccccc2N1` registered a TGI of more than 100 µM.

As for `CCOC(=O)c1ccc(N=Nc2ccc(N(CCC#N)CCC#N)cc2C)cc1`, the TGI is more than 100 µM.

Another test has as its system SK-MEL-2 melanoma. Kind of test: NCI anticancer screen, dose series, 48 h.
In the case of `COC(=O)C(C(=O)C(=O)Nc1c(Cl)cc([N+](=O)[O-])cc1Cl)c1csc(-n2nc(C3=CCCCC3)cc2-c2ccccc2)n1` (configuration not stated), the TGI is more than 100 µM.

For the molecule `O=C1CC(c2ccc(Cl)cc2)=Nc2ccccc2N1`, the TGI is more than 100 µM.

`CCOC(=O)c1ccc(N=Nc2ccc(N(CCC#N)CCC#N)cc2C)cc1` returned a TGI of more than 100 µM.

Another test relates to M14 melanoma. Kind of test: NCI anticancer screen, dose series, 48 h.
On to `COC(=O)C(C(=O)C(=O)Nc1c(Cl)cc([N+](=O)[O-])cc1Cl)c1csc(-n2nc(C3=CCCCC3)cc2-c2ccccc2)n1` (configuration not stated), for which the TGI was more than 100 µM.

(Values after PubChem BioAssay (NCI).)
